Measurements from patent US11512069B2, “TLR7/8 antagonists and uses thereof” (Merck Patent GmbH, priority 2016, dated 2022).

Molecular target: T1, TLR7 (Homo sapiens, UniProt Q9NYK1)
T1 construct: expressed in transfected cells; host or cells: HEK cells carrying TLR7 and an NF-kB reporter read with Steady-Glo
T1 sequence (Q9NYK1 27-1049): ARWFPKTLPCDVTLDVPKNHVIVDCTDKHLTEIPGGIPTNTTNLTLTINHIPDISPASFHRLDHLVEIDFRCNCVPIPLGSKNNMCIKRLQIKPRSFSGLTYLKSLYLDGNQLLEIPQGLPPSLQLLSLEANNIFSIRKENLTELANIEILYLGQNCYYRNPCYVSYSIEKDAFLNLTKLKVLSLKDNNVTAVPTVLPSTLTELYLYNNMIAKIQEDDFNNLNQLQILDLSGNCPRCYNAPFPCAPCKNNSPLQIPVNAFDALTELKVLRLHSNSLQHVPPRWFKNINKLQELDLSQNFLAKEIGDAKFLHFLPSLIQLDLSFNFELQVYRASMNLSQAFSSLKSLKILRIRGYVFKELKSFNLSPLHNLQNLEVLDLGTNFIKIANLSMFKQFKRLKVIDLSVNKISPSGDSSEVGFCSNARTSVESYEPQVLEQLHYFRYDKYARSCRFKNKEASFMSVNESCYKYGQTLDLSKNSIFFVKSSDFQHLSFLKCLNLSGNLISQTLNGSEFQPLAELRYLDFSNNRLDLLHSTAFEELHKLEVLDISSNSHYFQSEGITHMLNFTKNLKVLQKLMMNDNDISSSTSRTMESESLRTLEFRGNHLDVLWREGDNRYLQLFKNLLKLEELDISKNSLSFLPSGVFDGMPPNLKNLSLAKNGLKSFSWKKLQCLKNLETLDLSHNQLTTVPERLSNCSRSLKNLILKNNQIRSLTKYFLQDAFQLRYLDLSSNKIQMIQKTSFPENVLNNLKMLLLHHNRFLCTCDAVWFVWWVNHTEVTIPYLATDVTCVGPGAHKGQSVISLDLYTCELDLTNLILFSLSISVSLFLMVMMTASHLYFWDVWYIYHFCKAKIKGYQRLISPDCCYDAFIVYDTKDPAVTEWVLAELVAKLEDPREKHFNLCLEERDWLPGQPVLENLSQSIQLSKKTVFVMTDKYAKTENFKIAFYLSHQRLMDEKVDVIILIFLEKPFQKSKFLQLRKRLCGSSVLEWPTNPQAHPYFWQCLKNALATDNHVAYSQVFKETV
Test: HEK Cell Assay (TLR7/NFKb HEK reporter cells, Steady-Glo)
Format: cell-based
Settings: compound 30 min, then R*48 agonist 5 hours, Steady-Glo readout, read-out: Potency
Method: Example 32: HEK Cell Assay
Into 384 CulturePlates (Corning 3707) was placed 5000 c/w of TLR7/NFKb HEK cells in 30 uL DMEM without Phenil red (gibco #31053) and 10% i.a. FCS and 2 mM L-ZGLutamin. The cells were incubated for 24 h at 37 degrees Celsius, 10% carbon dioxide and 90% relative humidity, 3 uL of controls, standards, and compounds were dispensed to wells, incubated for 30 min then 3 uL of R*48 agonist in 20 mM Hepes was added. After incubation for 5 hours, it was allowed to stand at room temperature for 15 min, 10 uL of Steady-Glo substrate reagent was added and shake assay plate for 5 min at 1500 rpm. The assay plate was allowed to sit for 30 min at room temperature and then read plate on EnVision.

IC50 | Structure (SMILES)
1 to 20 µM | C[C@@H]1C[C@H](c2ccc(C#N)c3ncccc23)CN(C(=O)CN2CCC2)C1 (relative stereo) [Compound 33]
1 to 20 µM | C[C@@H]1C[C@H](c2ccc(C#N)c3ncccc23)CN(C(=O)CC2CN(C)C2)C1 (relative stereo) [Compound 34, cis-1-Methyl-1-[2-(1-methyl-azetidin-3-yl)-acetyl]-piperidin-3-yl-quinoline-8-carbonitrile]
> 20 µM | C[C@@H]1C[C@H](c2ccc(C#N)c3ncccc23)CN(C(=O)c2ccc(N3CCC3)nc2)C1 (relative stereo) [Compound 36, cis-5-[1-(6-Azetidin-1-yl-pyridine-3-carbonyl)-5-methyl-piperidin-3-yl]-quinoline-8-carbonitrile]
> 20 µM | C[C@@H]1C[C@H](c2ccc(C#N)c3ncccc23)CN(C(=O)C2CCC(F)(F)CC2)C1 (relative stereo) [Compound 37, cis-5-[1-(4,4-Difluoro-cyclohexanecarbonyl)-5-methyl-piperidin-3-yl]-quinoline-8-carbonitrile]
> 20 µM | C[C@@H]1C[C@H](c2ccc(C#N)c3ncccc23)CN(C(=O)c2cc3n(n2)CCC3)C1 (relative stereo) [Compound 38, cis-5-[1-(5,6-Dihydro-4H-pyrrolo[1,2-b]pyrazole-2-carbonyl)-5-methyl-piperidin-3-yl]-quinoline-8-carbonitrile]
1 to 20 µM | C[C@@H]1C[C@H](c2ccc(C#N)c3ncccc23)CN(C(=O)C2CCN(C)CC2)C1 (relative stereo) [Compound 39, cis-5-[5-Methyl-1-(1-methyl-piperidine-4-carbonyl)-piperidin-3-yl]-quinoline-8-carbonitrile]
1 to 20 µM | C[C@@H]1C[C@H](c2ccc(C(F)(F)F)c3ncccc23)CN(C(=O)NC2CC2)C1 (relative stereo) [Compound 40, cis-Cyclopropyl-3-methyl-5-[8-(trifluoromethyl)-5-quinolyl] piperidine-1-carboxamide]
1 to 20 µM | C[C@@H]1C[C@@H](c2ccc(C(F)(F)F)c3ncccc23)CN(C(=O)NC2CC2)C1 (relative stereo) [Compound 41, trans-Cyclopropyl-3-methyl-5-[8-(trifluoromethyl)-5-quinolyl] piperidine-1-carboxamide]
1 to 20 µM | C[C@@H]1C[C@H](c2ccc(C#N)c3ncccc23)CN(C(=O)CC2(N)CC2)C1 (relative stereo) [Compound 62, Cis-1-[2-(1-Amino-cyclopropyl)-acetyl]-5-methyl-piperidin-3-yl-quinoline-8-carbonitrile]
1 to 20 µM | C[C@H]1C[C@H](c2ccc(C#N)c3ncccc23)CN(C(=O)CC2(N)CC2)C1 (relative stereo) [Compound 63, Trans-1-[2-(1-Amino-cyclopropyl)-acetyl]-5-methyl-piperidin-3-yl-quinoline-8-carbonitrile]
> 20 µM | C[C@H]1C[C@H](c2ccc(C#N)c3ncccc23)CN(CC(N)=O)C1 (relative stereo) [Compound 66]
> 20 µM | C[C@@H]1C[C@H](c2ccc(C#N)c3ncccc23)CN(CC(N)=O)C1 (relative stereo) [Compound 67]
1 to 20 µM | C[C@@H]1C[C@H](c2ccc(C#N)c3ncccc23)CN(CC(=O)NC2CCN(C)CC2)C1 (relative stereo) [Compound 68, cis-2-[3-(8-Cyano-quinolin-5-yl)-5-methyl-piperidin-1-yl]-N-(1-methyl-piperidin-4-yl)-acetamide]
1 to 20 µM | C[C@@H]1C[C@@H](c2ccc(C#N)c3ncccc23)CN(CC(=O)NC2CCN(C)CC2)C1 (relative stereo) [Compound 69, trans-2-[3-(8-Cyano-quinolin-5-yl)-5-methyl-piperidin-1-yl]-N-(1-methyl-piperidin-4-yl)-acetamide]
1 to 20 µM | C[C@@H]1C[C@H](c2ccc(C#N)c3ncccc23)CN(CC(=O)N2CCC(N(C)C)CC2)C1 (relative stereo) [Compound 70, cis-5-(1-{2-[4-(dimethylamino)piperidin-1-yl]-2-oxoethyl}-5-methylpiperidin-3-yl) quinoline-8-carbonitrile]
1 to 20 µM | C[C@@H]1C[C@@H](c2ccc(C#N)c3ncccc23)CN(CC(=O)N2CCC(N(C)C)CC2)C1 (relative stereo) [Compound 71, trans-5-(1-{2-[4-(dimethylamino)piperidin-1-yl]-2-oxoethyl}-5-methylpiperidin-3-yl) quinoline-8-carbonitrile]
1 to 20 µM | C[C@@H]1C[C@H](c2ccc(C#N)c3ncccc23)CN(CC(=O)NCCN2CCN(C)CC2)C1 (relative stereo) [Compound 72, cis-2-[3-(8-Cyano-quinolin-5-yl)-5-methyl-piperidin-1-yl]-N-[2-(4-methyl-piperazin-1-yl)-ethyl]-acetamide]
1 to 20 µM | C[C@@H]1C[C@@H](c2ccc(C#N)c3ncccc23)CN(CC(=O)NCCN2CCN(C)CC2)C1 (relative stereo) [Compound 73, trans-2-[3-(8-Cyano-quinolin-5-yl)-5-methyl-piperidin-1-yl]-N-[2-(4-methyl-piperazin-1-yl)-ethyl]-acetamide]
1 to 20 µM | C[C@@H]1C[C@H](c2ccc(C#N)c3ncccc23)CN(CC(=O)NCC2CCN(C)CC2)C1 (relative stereo) [Compound 74, cis-2-[3-(8-Cyano-quinolin-5-yl)-5-methyl-piperidin-1-yl]-N-(1-methyl-piperidin-4-ylmethyl)-acetamide]
1 to 20 µM | C[C@@H]1C[C@@H](c2ccc(C#N)c3ncccc23)CN(CC(=O)NCC2CCN(C)CC2)C1 (relative stereo) [Compound 75, trans-2-[3-(8-Cyano-quinolin-5-yl)-5-methyl-piperidin-1-yl]-N-(1-methyl-piperidin-4-ylmethyl)-acetamide]
> 20 µM | C[C@@H]1C[C@H](c2ccc(C#N)c3ncccc23)CN(CC(=O)Nc2cnn(C)c2)C1 (relative stereo) [Compound 76, cis-2-[3-(8-Cyano-quinolin-5-yl)-5-methyl-piperidin-1-yl]-N-(1-methyl-1H-pyrazol-4-yl)-acetamide]
> 20 µM | C[C@@H]1C[C@@H](c2ccc(C#N)c3ncccc23)CN(CC(=O)Nc2cnn(C)c2)C1 (relative stereo) [Compound 77, trans-2-[3-(8-Cyano-quinolin-5-yl)-5-methyl-piperidin-1-yl]-N-(1-methyl-1H-pyrazol-4-yl)-acetamide]
< 1 µM | C[C@@H]1C[C@H](c2ccc(C#N)c3ncccc23)CN(C(=O)CC2[C@H]3CN(C)C[C@@H]23)C1 (relative stereo) [Compound 79]
> 20 µM | C[C@@H]1C[C@H](c2ccc(C#N)c3ncccc23)CN(C(=O)Cc2cnn(C)c2)C1 (relative stereo) [Compound 107, cis-5-Methyl-1-[2-(1-methyl-1H-pyrazol-4-yl)-acetyl]-piperidin-3-yl-quinoline-8-carbonitrile]
1 to 20 µM | C[C@@H]1C[C@H](c2ccc(C#N)c3ncccc23)CN(C(=O)c2cnn(C)c2)C1 (relative stereo) [Compound 108, cis-5-Methyl-1-(1-methyl-H-pyrazole-4-carbonyl)-piperidin-3-yl-quinoline-8-carbonitrile]
< 1 µM | COCCN[C@@H]1C[C@H](C)C[C@H](c2ccc(C#N)c3nccnc23)C1 (relative stereo) [Compound 133, 8-[(cis-1,3,5)-3-[(2-methoxyethyl)amino]-5-methylcyclohexyl]quinoxaline-5-carbonitrile]
1 to 20 µM | COCCN[C@@H]1C[C@H](C)C[C@@H](c2ccc(C#N)c3nccnc23)C1 (relative stereo) [Compound 134, 8-[(1,trans-3,cis-5)-3-[(2-methoxyethyl)amino]-5-methylcyclohexyl]quinoxaline-5-carbonitrile]
1 to 20 µM | CC1CC(c2ccc(C(F)(F)F)c3ncccc23)CN(C(=O)CCN2CCN(C)CC2)C1 (stereo in doubt) [Compound 45, 3-(4-Methyl-piperazin-1-yl)-1-[(3S,5S)-3-methyl-5-(8-trifluoromethyl-quinolin-5-yl)-piperidin-1-yl]-propan-1-one]
